Each block holds one molecule with its values, some of them ahead of it.
Key:
Muscle tissue [1] = test: Biodistribution in Sprague-Dawley rat muscle at 15 uCi, iv after 120 mins; format: ADME, organism-based; conditions: in vivo, 2 h
Femur [2] = test: Biodistribution in Sprague-Dawley rat femur at 15 uCi, iv after 120 mins; format: ADME, organism-based; conditions: in vivo, 2 h
Liver [3] = test: Biodistribution in Sprague-Dawley rat liver at 15 uCi, iv after 30 mins; format: ADME, organism-based; conditions: in vivo, 0.5 h
Heart [4] = test: Biodistribution in Sprague-Dawley rat heart at 15 uCi, iv after 120 mins; format: ADME, organism-based; conditions: in vivo, 2 h
Nucleic Acid [5] = test: Ratio of drug uptake in heart to liver of Sprague-Dawley rat at 60 mins; format: ADME; conditions: in vivo, 1 h
Blood [6] = test: Biodistribution in Sprague-Dawley rat blood at 15 uCi, iv after 30 mins; format: ADME, organism-based; conditions: in vivo, 0.5 h
Lung [7] = test: Biodistribution in Sprague-Dawley rat lung at 15 uCi, iv after 120 mins; format: ADME, organism-based; conditions: in vivo, 2 h
Spleen [8] = test: Biodistribution in Sprague-Dawley rat spleen at 15 uCi, iv after 30 mins; format: ADME, organism-based; conditions: in vivo, 0.5 h
Nucleic Acid [9] = test: Ratio of drug uptake in heart to lung of Sprague-Dawley rat at 60 mins; format: ADME; conditions: in vivo, 1 h
Nucleic Acid [10] = test: Ratio of drug uptake in heart to femur of Sprague-Dawley rat at 60 mins; format: ADME; conditions: in vivo, 1 h
Nucleic Acid [11] = test: Ratio of drug uptake in heart to lung of Sprague-Dawley rat at 30 mins; format: ADME; conditions: in vivo, 0.5 h
Nucleic Acid [12] = test: Ratio of drug uptake in heart to liver of Sprague-Dawley rat at 30 mins; format: ADME; conditions: in vivo, 0.5 h
Heart [13] = test: Biodistribution in Sprague-Dawley rat heart at 15 uCi, iv after 30 mins; format: ADME, organism-based; conditions: in vivo, 0.5 h
Kidney [14] = test: Biodistribution in Sprague-Dawley rat kidney at 15 uCi, iv after 30 mins; format: ADME, organism-based; conditions: in vivo, 0.5 h
Femur [15] = test: Biodistribution in Sprague-Dawley rat femur at 15 uCi, iv after 30 mins; format: ADME, organism-based; conditions: in vivo, 0.5 h
Rattus norvegicus [16] = test: Biodistribution in Sprague-Dawley rat urine at 15 uCi, iv after 120 mins; format: ADME, organism-based; conditions: in vivo, 2 h
Liver [17] = test: Biodistribution in Sprague-Dawley rat liver at 15 uCi, iv after 120 mins; format: ADME, organism-based; conditions: in vivo, 2 h
Lung [18] = test: Biodistribution in Sprague-Dawley rat lung at 15 uCi, iv after 30 mins; format: ADME, organism-based; conditions: in vivo, 0.5 h
Rattus norvegicus [19] = test: Biodistribution in Sprague-Dawley rat urine at 15 uCi, iv after 30 mins; format: ADME, organism-based; conditions: in vivo, 0.5 h
Kidney [20] = test: Biodistribution in Sprague-Dawley rat kidney at 15 uCi, iv after 120 mins; format: ADME, organism-based; conditions: in vivo, 2 h
Muscle tissue [21] = test: Biodistribution in Sprague-Dawley rat muscle at 15 uCi, iv after 30 mins; format: ADME, organism-based; conditions: in vivo, 0.5 h
Blood [22] = test: Biodistribution in Sprague-Dawley rat blood at 15 uCi, iv after 120 mins; format: ADME, organism-based; conditions: in vivo, 2 h
Spleen [23] = test: Biodistribution in Sprague-Dawley rat spleen at 15 uCi, iv after 120 mins; format: ADME, organism-based; conditions: in vivo, 2 h
[24] = Inhibition of MC1 by NADH-DB reductase assay; design: species or system Homo sapiens

SMILES: CC(C)(C)c1ccc(CNc2ncnc3ccccc23)cc1
- IC50 [24]: 0.241 µM

SMILES: CC(C)(C)c1ccc(CCOc2ncnc3ccccc23)cc1 [FENAZAQUIN]
- IC50 [24]: 0.004 µM

SMILES: CCCC(O)c1ccc(CCOc2ncnc3ccccc23)cc1 (configuration not stated)
- IC50 [24]: 0.0217 µM

SMILES: CCCC(F)c1ccc(CCOc2ncnc3ccccc23)cc1 (configuration not stated)
- IC50 [24]: 0.0193 µM

Other lines, results leading:

- Drug uptake (Muscle tissue [1]): 0.12 % ID/g
- Drug uptake (Femur [2]): 0.65 % ID/g
- Drug uptake (Liver [3]): 1.29 % ID/g
- Drug uptake (Heart [4]): 2.5 % ID/g
- Ratio (Nucleic Acid [5]): 5.7
- Drug uptake (Blood [6]): 0.08 % ID/g
- Drug uptake (Lung [7]): 0.11 % ID/g
- Drug uptake (Spleen [8]): 0.19 % ID/g
- Ratio (Nucleic Acid [9]): 2.5
- Ratio (Nucleic Acid [10]): 3.6
- Ratio (Nucleic Acid [11]): 11.3
- Ratio (Nucleic Acid [12]): 23
- Drug uptake (Heart [13]): 3.22 % ID/g
- Drug uptake (Kidney [14]): 1.99 % ID/g
- Drug uptake (Femur [15]): 0.19 % ID/g
- Drug uptake (Rattus norvegicus [16]): 4.44 % ID/g
- Drug uptake (Liver [17]): 0.44 % ID/g
- Drug uptake (Lung [18]): 0.28 % ID/g
- Drug uptake (Rattus norvegicus [19]): 0.5 % ID/g
- Drug uptake (Kidney [20]): 0.68 % ID/g
- Drug uptake (Muscle tissue [21]): 0.08 % ID/g
- Drug uptake (Blood [22]): 0.06 % ID/g
- Drug uptake (Spleen [23]): 0.07 % ID/g
SMILES: [18F]CCCCCc1ccc(CCOc2ncnc3ccccc23)cc1

- IC50 [24]: 0.0375 µM
SMILES: CCCCc1ccc(CCOc2ncnc3ccccc23)cc1

- IC50 [24]: 0.414 µM
SMILES: OCCCCc1ccc(COc2ncnc3ccccc23)cc1

- IC50 [24]: 1 µM
SMILES: CCCCc1ccc(COc2ncnc3ccccc23)cc1

- IC50 [24]: 0.0113 µM
SMILES: FCCCCCc1ccc(CCOc2ncnc3ccccc23)cc1

- IC50 [24]: 0.0224 µM
SMILES: OCCCCc1ccc(CCOc2ncnc3ccccc23)cc1
